# Laboratory results taken from PMC5974244, “Tumour-associated missense mutations in the dMi-2 ATPase alters nucleosome remodelling properties in a mutation-specific manner” (Nature Communications, 2018).
# What was measured:
# dMi-2 [1] = target: T1, dMi-2 (Drosophila melanogaster, UniProt O97159, R1164Q); assay: nitrocellulose filter binding with [gamma-32P]ATP; conditions: labelled compound; same 90 nM protein, 0.25 mM MgCl2, 26 °C; printed as R1162Q (human CHD4 numbering)
# T1 construct: gene Mi-2; FLAG-tagged dMi-2 (no truncation stated), baculovirus / Sf9 cells, anti-FLAG purified, FLAG peptide elution
# dMi-2 [2] = target: T2, dMi-2 (Drosophila melanogaster, UniProt O97159, L914V); assay: nitrocellulose filter binding with [gamma-32P]ATP; conditions: labelled compound; same 90 nM protein, 0.25 mM MgCl2, 26 °C; printed as L912V (human CHD4 numbering)
# T2 construct: gene Mi-2; FLAG-tagged dMi-2 (no truncation stated), baculovirus / Sf9 cells, anti-FLAG purified, FLAG peptide elution
# dMi-2 [3] = target: T3, dMi-2 (Drosophila melanogaster, UniProt O97159, L1217P); assay: nitrocellulose filter binding with [gamma-32P]ATP; conditions: labelled compound; same 90 nM protein, 0.25 mM MgCl2, 26 °C; printed as L1215P (human CHD4 numbering)
# T3 construct: gene Mi-2; FLAG-tagged dMi-2 (no truncation stated), baculovirus / Sf9 cells, anti-FLAG purified, FLAG peptide elution
# dMi-2 [4] = target: T4, dMi-2 (Drosophila melanogaster, UniProt O97159, C452Y); assay: nitrocellulose filter binding with [gamma-32P]ATP; conditions: labelled compound; same 90 nM protein, 0.25 mM MgCl2, 26 °C; printed as C464Y (human CHD4 numbering)
# T4 construct: gene Mi-2; FLAG-tagged dMi-2 (no truncation stated), baculovirus / Sf9 cells, anti-FLAG purified, FLAG peptide elution
# dMi-2 [5] = target: T5, dMi-2 (Drosophila melanogaster, UniProt O97159); assay: ATPase assay, TLC of [gamma-32P]ATP; format: biochemical; conditions: labelled compound as tracer; 20 µM ATP, saturating polynucleosomes, 26 °C, 30 min
# T5 construct: gene Mi-2; FLAG-tagged dMi-2 (no truncation stated), baculovirus / Sf9 cells, anti-FLAG purified, FLAG peptide elution
# dMi-2 [6] = target: T6, dMi-2 (Drosophila melanogaster, UniProt O97159, R552Q); assay: nitrocellulose filter binding with [gamma-32P]ATP; conditions: labelled compound; same 90 nM protein, 0.25 mM MgCl2, 26 °C; printed as R572Q (human CHD4 numbering; also as R572Y in places, primer encodes Q)
# T6 construct: gene Mi-2; FLAG-tagged dMi-2 (no truncation stated), baculovirus / Sf9 cells, anti-FLAG purified, FLAG peptide elution
# dMi-2 [7] = target: T7, dMi-2 (Drosophila melanogaster, UniProt O97159, H1198Y); assay: nitrocellulose filter binding with [gamma-32P]ATP; conditions: labelled compound; same 90 nM protein, 0.25 mM MgCl2, 26 °C; printed as H1196Y (human CHD4 numbering)
# T7 construct: gene Mi-2; FLAG-tagged dMi-2 (no truncation stated), baculovirus / Sf9 cells, anti-FLAG purified, FLAG peptide elution
# dMi-2 [8] = target: T8, dMi-2 (Drosophila melanogaster, UniProt O97159, V538F); assay: nitrocellulose filter binding with [gamma-32P]ATP; conditions: labelled compound; same 90 nM protein, 0.25 mM MgCl2, 26 °C; printed as V558F (human CHD4 numbering)
# T8 construct: gene Mi-2; FLAG-tagged dMi-2 (no truncation stated), baculovirus / Sf9 cells, anti-FLAG purified, FLAG peptide elution
# dMi-2 [9] = target: T5, dMi-2; assay: nitrocellulose filter binding with [gamma-32P]ATP; conditions: labelled compound; 90 nM protein, 0.25 mM MgCl2, 100 mM KCl, 20 mM HEPES, 26 °C; competition by cold ATP
# dMi-2 [10] = target: T9, dMi-2 (Drosophila melanogaster, UniProt O97159, H1153R); assay: nitrocellulose filter binding with [gamma-32P]ATP; conditions: labelled compound; same 90 nM protein, 0.25 mM MgCl2, 26 °C; printed as H1151R (human CHD4 numbering)
# T9 construct: gene Mi-2; FLAG-tagged dMi-2 (no truncation stated), baculovirus / Sf9 cells, anti-FLAG purified, FLAG peptide elution
# T9 sequence (O97159 whole entry H1153R, the tested form may be a part): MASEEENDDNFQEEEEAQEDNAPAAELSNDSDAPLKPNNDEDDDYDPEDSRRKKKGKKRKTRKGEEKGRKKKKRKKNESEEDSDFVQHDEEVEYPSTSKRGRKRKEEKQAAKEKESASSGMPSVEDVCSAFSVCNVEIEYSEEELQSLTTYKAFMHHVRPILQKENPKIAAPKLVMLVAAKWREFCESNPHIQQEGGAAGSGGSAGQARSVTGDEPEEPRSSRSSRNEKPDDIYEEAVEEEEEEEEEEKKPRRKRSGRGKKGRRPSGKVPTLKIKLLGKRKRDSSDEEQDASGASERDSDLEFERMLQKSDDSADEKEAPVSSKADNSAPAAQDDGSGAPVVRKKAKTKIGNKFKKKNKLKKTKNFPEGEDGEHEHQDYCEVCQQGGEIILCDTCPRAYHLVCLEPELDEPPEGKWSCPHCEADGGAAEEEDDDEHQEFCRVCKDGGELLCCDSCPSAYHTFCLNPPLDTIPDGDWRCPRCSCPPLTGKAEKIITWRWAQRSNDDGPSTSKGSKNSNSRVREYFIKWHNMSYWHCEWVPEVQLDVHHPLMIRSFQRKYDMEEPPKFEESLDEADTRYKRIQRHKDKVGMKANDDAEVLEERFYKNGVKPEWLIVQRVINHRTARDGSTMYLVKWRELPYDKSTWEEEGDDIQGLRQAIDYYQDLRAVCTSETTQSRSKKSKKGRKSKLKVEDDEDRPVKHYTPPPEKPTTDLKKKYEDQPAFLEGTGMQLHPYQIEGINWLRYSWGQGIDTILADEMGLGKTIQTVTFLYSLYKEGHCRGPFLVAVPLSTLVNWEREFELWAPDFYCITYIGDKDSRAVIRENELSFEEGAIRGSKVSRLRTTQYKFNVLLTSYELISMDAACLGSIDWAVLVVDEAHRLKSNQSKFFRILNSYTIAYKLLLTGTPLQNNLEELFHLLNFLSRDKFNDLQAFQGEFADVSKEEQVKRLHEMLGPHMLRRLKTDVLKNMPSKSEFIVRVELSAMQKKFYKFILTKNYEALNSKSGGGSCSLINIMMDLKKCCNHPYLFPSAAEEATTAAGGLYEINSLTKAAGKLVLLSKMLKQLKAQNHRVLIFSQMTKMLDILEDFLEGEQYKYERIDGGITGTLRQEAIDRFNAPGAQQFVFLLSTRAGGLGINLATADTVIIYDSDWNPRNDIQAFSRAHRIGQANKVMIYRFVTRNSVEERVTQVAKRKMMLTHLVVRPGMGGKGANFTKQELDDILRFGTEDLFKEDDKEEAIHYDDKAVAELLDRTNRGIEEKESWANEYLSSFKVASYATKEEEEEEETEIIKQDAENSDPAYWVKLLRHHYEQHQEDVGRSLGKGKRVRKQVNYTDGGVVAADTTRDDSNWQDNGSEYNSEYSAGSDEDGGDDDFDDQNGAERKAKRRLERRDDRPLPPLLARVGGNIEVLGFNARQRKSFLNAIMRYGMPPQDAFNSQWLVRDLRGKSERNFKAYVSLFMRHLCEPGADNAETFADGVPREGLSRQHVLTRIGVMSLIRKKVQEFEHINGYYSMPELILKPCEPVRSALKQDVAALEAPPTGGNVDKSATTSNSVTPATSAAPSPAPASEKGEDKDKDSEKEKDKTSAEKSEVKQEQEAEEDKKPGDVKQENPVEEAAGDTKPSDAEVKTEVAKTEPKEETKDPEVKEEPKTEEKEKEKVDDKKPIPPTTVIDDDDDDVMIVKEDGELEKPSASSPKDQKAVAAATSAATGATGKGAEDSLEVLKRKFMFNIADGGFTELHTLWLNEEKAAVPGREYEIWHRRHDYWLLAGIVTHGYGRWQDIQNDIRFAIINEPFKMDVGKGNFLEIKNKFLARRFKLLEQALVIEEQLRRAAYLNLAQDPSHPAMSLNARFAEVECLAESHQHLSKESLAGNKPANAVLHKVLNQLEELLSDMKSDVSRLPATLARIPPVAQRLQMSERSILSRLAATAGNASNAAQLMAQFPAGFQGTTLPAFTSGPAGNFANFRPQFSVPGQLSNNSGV
# T5 sequence (O97159 whole entry, the tested form may be a part): as the sequence (O97159 whole entry H1153R, the tested form may be a part) above, with R1153H counted along it
# T8 sequence (O97159 whole entry V538F, the tested form may be a part): as the sequence (O97159 whole entry H1153R, the tested form may be a part) above, with V538F, R1153H counted along it
# T6 sequence (O97159 whole entry R552Q, the tested form may be a part): as the sequence (O97159 whole entry H1153R, the tested form may be a part) above, with R552Q, R1153H counted along it
# T2 sequence (O97159 whole entry L914V, the tested form may be a part): as the sequence (O97159 whole entry H1153R, the tested form may be a part) above, with L914V, R1153H counted along it
# T1 sequence (O97159 whole entry R1164Q, the tested form may be a part): as the sequence (O97159 whole entry H1153R, the tested form may be a part) above, with R1153H, R1164Q counted along it
# T7 sequence (O97159 whole entry H1198Y, the tested form may be a part): as the sequence (O97159 whole entry H1153R, the tested form may be a part) above, with R1153H, H1198Y counted along it
# T3 sequence (O97159 whole entry L1217P, the tested form may be a part): as the sequence (O97159 whole entry H1153R, the tested form may be a part) above, with R1153H, L1217P counted along it
# T4 sequence (O97159 whole entry C452Y, the tested form may be a part): as the sequence (O97159 whole entry H1153R, the tested form may be a part) above, with C452Y, R1153H counted along it
smiles,measurement,setting,value
Nc1ncnc2c1ncn2[C@@H]1O[C@H](COP(=O)(O)OP(=O)(O)OP(=O)(O)O)[C@@H](O)[C@H]1O [ATP],% of WT ATP binding activity,dMi-2 [1],Most dMi-2 mutants displayed robust ATP binding activity
same,% of WT ATP binding activity,dMi-2 [2],Most dMi-2 mutants displayed robust ATP binding activity
same,% of WT ATP binding activity,dMi-2 [3],Most dMi-2 mutants displayed robust ATP binding activity
same,% of WT ATP binding activity,dMi-2 [4],Most dMi-2 mutants displayed robust ATP binding activity
same,"ATPase assay, TLC of [gamma-32P]ATP",dMi-2 [5],We performed ATPase assays in the absence or presence of saturating amounts of salt dialysis-assembled
same,% of WT binding activity,dMi-2 [6],32%
same,% of WT ATP binding activity,dMi-2 [7],Most dMi-2 mutants displayed robust ATP binding activity
same,% of WT ATP binding activity,dMi-2 [8],Most dMi-2 mutants displayed robust ATP binding activity
same,nitrocellulose filter binding with [gamma-32P]ATP,dMi-2 [9],Binding of WT dMi-2 to radioactively labelled ATP was efficiently competed by an excess of
same,% of WT ATP binding activity,dMi-2 [10],Most dMi-2 mutants displayed robust ATP binding activity
